In assay [1] the target is recombinant human DPPI (Cathepsin C) (Homo sapiens (Human), UniProt P53634). The assay can be described thus: Inhibition of human DPPI (Cathepsin C). The note with it: substrate Gly-Arg-AMC 50 μM, 30 min, room temperature. The assay is classed as biochemical. From the text:
Inhibition of Human DPPI (Cathepsin C)
Materials: Microtiterplates (Optiplate-384 F) were purchased from PerkinElmer (Prod. No. 6007270). The substrate Gly-Arg-AMC was from Biotrend (Prod.-No. 808756 Custom peptide). Bovine serum albumin (BSA; Prod. No. A3059) and Dithiothreitol (DTT; Prod. No D0632) were from Sigma. TagZyme buffer was from Riedel-de-Haen (Prod.-No. 04269), NaCl was from Merck (Prod.-No. 1.06404.1000) and morpholinoethane sulfonic acid (MES), was from Serva (Prod.-No. 29834). The DPP1 inhibitor Gly-Phe-DMK was purchased from MP Biomedicals (Prod.-No. 03DK00625). The recombinant human DPPI was purchased from Prozymex. All other materials were of highest grade commercially available.
The following buffers were used: MES buffer: 25 mM MES, 50 mM NaCl, 5 mM DTT, adjusted to pH 6.0, containing 0.1% BSA; TAGZyme Buffer: 20 mM NaH2PO4, 150 mM NaCl adjusted to pH 6.0 with HCl
The recombinant human DPPI was diluted in TAGZyme buffer to 1 U/ml (38.1 μg/ml, respectively), and then activated by mixing in a 1:2 ratio with a Cysteamine aqueous solution (2 mM) and incubating for 5 min at room temperature.
Five uL test compound (final concentration 0.1 nM to 100 μM) in aqua bidest (containing 4% DMSO, final DMSO concentration 1%) were mixed with 10 μL of DPPI in MES buffer (final concentration 0.0125 ng/μL) and incubated for 10 min. Then, 5 μL of substrate in MES buffer (final concentration 50 μM) were added. The microtiter plates were then incubated at room temperature for 30 min. Then, the reaction was stopped by adding 10 μL of Gly-Phe-DMK in MES-buffer (final concentration 1 μM). The fluorescence in the wells was determined using a Molecular Devices SpectraMax M5 Fluorescence Reader (Ex 360 nm, Em 460 nm) or an Envision Fluorescence Reader (Ex 355 nm, Em 460 nm).
The analysis of the data was performed by calculating the percentage of fluorescence in the presence of test compound in comparison to the fluorescence of the vehicle control after subtracting the background fluorescence using the following formula: (RFU(sample)−RFU(background))*100/(RFU(control)−RFU(background))
Data from these calculations were used to generate IC50 values for inhibition of DPPI, respectively.

In assay [2] the test system is Neutrophil elastase activity in U937 cells. The assay can be described thus: Neutrophil elastase activity in U937 cytosolic lysate after incubation with test compound. It counts as cell-based. The note with it: Homo sapiens, U-937; U937 cells incubated 48 hours with compound; NE activity in lysate; read-out: Reduction of NE-activity in U937 cells IC50. The protocol: Determination of Neutrophil Elastase Activity in U937 Cytosolic Lysate Preparation after Incubation with Test Compound Materials: Optiplate 384F were purchased from PerkinElmer (Prod. No. #6007270). 24 well Nunclon cell culture plates (No. 142475) and 96 well plates (No. 267245) were from Nunc. Dimethylsulfoxid (DMSO) was from Sigma (Prod. No. D8418). Nonidet-P40 (NP40) was from USBiological (Prod. No. N3500) Substrate, specific for Neutrophil elastase, was from Bachem (MeOSuc-Ala-Ala-Pro-Val-AMC; Prod. No. I-1270). Human neutrophil elastase was from Calbiochem (Prod. No. 324681) Buffers: Tris-buffer (100 mM Tris; 1M NaCL; pH 7.5) Tris-buffer+HSA 0.1%; Human Serum Albumin from Calbiochem (Cat#. 126658) Serine-protease buffer (20 mM Tris; 100 mM NaCL; pH 7.5)+0.1% HSA Serine protease lysis buffer: 20 mM Tris-HCL; 100 mM NaCl pH 7.5; +0.2% Nonidet-P40; PBS: phosphate buffered saline, without Ca and Mg, from Gibco Cell Culture: U937 from ECACC (Cat. No. 85011440) cultured in suspension at 37° C. and 5% CO2. Cell density: 0.2-1 Mio. Cells/ml. Medium: RPMI1640 GlutaMAX (No. 61870) with 10% FCS from Gibco Cell Seeding and Treatment: Compounds in 100% DMSO were diluted in Medium (—FCS) with 10% DMSO and further diluted according to the experiment planned. 20 μl of the compound solution was transferred in the respective wells of the 24 well plate and diluted with 2 ml cell suspension/well containing 1′10^5 cells/ml (final concentration of DMSO=0.1%). Compound dilution factor=100 Compounds (up to 7 concentrations) were tested in triplicates with 3 wells for the DMSO 0.1% control, incubated for 48 hours without medium change at 37° C., 5% CO2 and 95% relative to humidity. Cell Harvesting and Cell Lysate:
Transfer the cell suspension in 2.2 ml Eppendorf cups. Separate cells from medium by centrifugation (400×g; 5 min; RT); discard the supernatant. Resuspend in 1 ml PBS; centrifugation (400×g; 5 min; RT); wash cells twice with PBS. Add 100 μl Serin lysis buffer (ice cold) to the cell pellet; resuspend the pellet and store on ice for 15 minutes. Remove debris by centrifugation at 15000×g for 10 min at 4° C. Transfer 80-100 μl lysate supernatant in 96 well plate and store immediately at −80° C.
Neutrophil Elastase Activity Assay:
Frozen lysates were thawn at 37° C. for 10 minutes and stored on ice. Protein content was determined with Bradford protein assay. Lysates were diluted to 0.2-0.5 mg/ml protein in serine protease buffer+HSA.
Standard: NE (100 μg/ml stocksolution in Tris-buffer; stored at −80° C.) was diluted in Tris-buffer+HSA to 750 ng/ml, and further serially diluted 1:2 for the standard curve.
Buffer, blank, standard and lysate samples were transferred into 384 well plate
The increase in fluorescence (Ex360 nm/Em 460 nm) is determined over 30 minutes with a Molecular Device Spectramax M5 Fluorescence Reader. Kinetic Reduction (Vmax units/sec); 4 vmax points. The amount of neutrophil elastase (ng/ml) is calculated using the standard curve and the Spectramax software. The result is interpolated to ng/mg lysate protein using excel formula functions. […] IC50 is calculated using Graphpad Prism; nonlinear fitting (log(inhibitor) vs. response—Variable slope). The IC50 value is interpolated as the concentration of test compound which leads to a neutrophil elastase activity reduction of 50% (relative to the DMSO-treated control).

recombinant human DPPI (Cathepsin C), sequence (P53634 231-394): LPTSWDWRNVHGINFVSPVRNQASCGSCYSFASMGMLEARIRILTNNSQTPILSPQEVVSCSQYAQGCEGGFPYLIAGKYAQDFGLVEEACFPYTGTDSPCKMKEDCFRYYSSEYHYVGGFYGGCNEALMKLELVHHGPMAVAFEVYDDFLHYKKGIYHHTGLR
recombinant human DPPI (Cathepsin C), sequence (P53634 395-463): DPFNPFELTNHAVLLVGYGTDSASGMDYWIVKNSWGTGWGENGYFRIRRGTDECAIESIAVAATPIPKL
recombinant human DPPI (Cathepsin C), sequence (P53634 25-134): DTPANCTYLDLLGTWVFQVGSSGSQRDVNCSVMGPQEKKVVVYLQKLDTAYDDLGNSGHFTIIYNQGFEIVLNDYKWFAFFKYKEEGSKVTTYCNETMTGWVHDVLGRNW

Usually IC50 stands for the point on the concentration scale where inhibition reaches its midpoint. In the case of `N#C[C@H](Cc1ccc(-c2ccc3c(c2)NC(=O)C3)cc1)NC(=O)[C@H]1NC2CCC1CC2` [Example 2, (2S)—N-[(1S)-cyano-2-[4-(2-oxoindolin-6-yl)phenyl]ethyl]-3-azabicyclo[2.2.2]octane-2-carboxamide], the IC50 is 0.0501 µM in assay [1] and 0.281 µM in assay [2].
Turning to `CN1C(=O)Cc2ccc(-c3ccc(C[C@@H](C#N)NC(=O)[C@H]4N[C@H]5CC[C@@H]4CC5)cc3)cc21` [Example 4], the IC50 turned out to be 0.0322 µM in assay [1] and 0.05 µM in assay [2].
The matching figures for `N#Cc1ccc(-c2ccc(C[C@@H](C#N)NC(=O)[C@H]3N[C@H]4CC[C@@H]3CC4)cc2)cc1F` [Example 7, (2S)—N-[(1S)-1-cyano-2-[4-(4-cyano-3-fluoro-phenyl)phenyl]ethyl]-3-azabicyclo[2.2.2]octane-2-carboxamide]: 0.0664 µM and 0.561 µM.
On to `CS(=O)(=O)c1cc(-c2ccc(C[C@@H](C#N)NC(=O)[C@H]3NC4CCC3CC4)cc2)ccc1C#N` [Example 8], for which the values for the IC50 in assay [1] and in assay [2] were 0.0702 µM and 0.469 µM, respectively.
For `CS(=O)(=O)c1cccc(-c2ccc(C[C@@H](C#N)NC(=O)[C@H]3NC4CCC3CC4)cc2)c1` [Example 10], the values for the IC50 in assay [1] and in assay [2] were 0.0735 µM and 0.426 µM, respectively.
As for `N#C[C@H](Cc1ccc(-c2ccc3c(c2)CNC3=O)cc1)NC(=O)[C@H]1NC2CCC1CC2` [Example 11], the IC50 is 0.0867 µM in assay [1] and 0.328 µM in assay [2].
As for `CS(=O)(=O)Nc1cccc(-c2ccc(C[C@@H](C#N)NC(=O)[C@H]3NC4CCC3CC4)cc2)c1` [Example 12], the IC50 in assay [1] came out at 0.0974 µM; in assay [2] it was 0.45 µM.
